Measured values taken from patent US9551711B2, “Compositions and methods for detecting nitration of PKG-1α and methods of use thereof” (Augusta University Research Institute, Inc., priority 2013, dated 2017).

Target: T1, PKG-1α (Homo sapiens, UniProt Q13976)
T1 sequence (Q13976 2-671): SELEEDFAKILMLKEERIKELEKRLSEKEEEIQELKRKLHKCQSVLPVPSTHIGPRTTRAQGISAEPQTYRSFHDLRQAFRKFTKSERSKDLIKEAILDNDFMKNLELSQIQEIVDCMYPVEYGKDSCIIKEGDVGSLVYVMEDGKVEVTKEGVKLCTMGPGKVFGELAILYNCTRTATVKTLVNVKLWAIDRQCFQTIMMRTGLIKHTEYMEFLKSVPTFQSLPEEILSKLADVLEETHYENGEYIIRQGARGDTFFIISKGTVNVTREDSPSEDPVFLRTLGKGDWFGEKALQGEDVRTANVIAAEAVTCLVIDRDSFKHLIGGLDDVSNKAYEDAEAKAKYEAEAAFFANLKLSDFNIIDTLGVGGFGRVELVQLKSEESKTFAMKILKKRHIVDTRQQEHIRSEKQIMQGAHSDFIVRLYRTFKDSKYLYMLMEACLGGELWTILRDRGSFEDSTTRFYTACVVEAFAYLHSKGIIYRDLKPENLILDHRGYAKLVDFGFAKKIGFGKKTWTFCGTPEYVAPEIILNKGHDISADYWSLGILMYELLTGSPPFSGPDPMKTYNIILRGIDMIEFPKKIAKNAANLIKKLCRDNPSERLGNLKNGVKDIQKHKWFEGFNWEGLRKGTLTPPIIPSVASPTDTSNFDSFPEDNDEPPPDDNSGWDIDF
Experiment: [3H]cGMP binding assay on immunopurified PKG-1α
Design: an expression plasmid containing a full length WT-PKG-1α cDNA; made in house; host or cells: HEK-293T; the results paragraph b304 says PASMC
Conditions: WT-PKG-1α; SIN-1 treatment
Protocol: HEK-293T cells were transiently transfected with either the WT-PKG-1α or the Y247FPKG-1α cDNA using Effectene transfection reagent (Qiagen), according to the manufacturer's instructions. Briefly, the cells were split the day before the transfection to low cell densities (25%) and were transfected 24 h later. After 48 h of transfection, the cells were incubated in DMEM serum free media containing 1% FBS and antibiotics for 4 h and then treated with or without SIN-1 (500 μM), for 30 min. This method produced an approximate 70% transfection efficiency of HEK-293T cells, as measured using green fluorescent protein vectors. […]
The batches of supernatant were pooled, and 2 μg of anti-PKG-1α antibody per mg of protein were added to the extract and rocked at 4° C. […] After 15 min of agitation at 4° C., the beads were pelleted by centrifugation, and the supernatant containing the PKG-1α protein was collected, quantified using Bradford reagent, and stored at −80° C.
To assay the binding of cGMP to WT- and Y247F-PKG-1α the enzymes were saturated with cGMP by incubating 50 μl aliquots of the diluted PKG constructs for 60 min at room temperature with 50 μl of [^3H]cGMP and 150 μl of cGMP-binding assay mixture (25 mM K2HPO4, 25 mM KH2PO4, 1 mM EDTA, pH 6.8, 2M NaCl, 200 μM 3-isobutyl-1-methylxanthine). […] The dissociation constant (Kd) values were determined using GraphPad Prism graphics. […]

In the case of “3-morpholinosydnonimine N-ethylcarbamide [SIN-1]”, the “maximal [3H]cGMP binding” value is reported as “significantly attenuated”.
